Results from US20090012014A1, “Compound, Composition and a Process Thereof” (INDUS BIOTECH PVT. LTD, priority 2007, published 2009).
Marks after values point to notes of the source that are not given here.

Tests used:
[1] = system: paw edema in Carrageenan model; assay: Acute study: Carrageenan induced paw edema; type: in vivo, Swiss Wistar rats; conditions: Dose 10 mg/kg; paw volume at 3 hrs
Experimental: These tests are for the inhibition of inflammation caused by prostaglandins in short period of time. This can be tested in animal (Swiss Wistar rats) as per well known protocols which are treated with Carrageenan. This model tests out anti-inflammatory activity caused by prostaglandin inhibition. Celecoxib is given as a positive control to do a comparison and evaluate the efficacy of anti-inflammatory purified extract as described above in Prostaglandin inhibition in 3 hrs.
Paw Volume measured is compared with Control group and standard drug, celecoxib. Paw volume initial to the paw volume at 1 h, 2 h, 3 h is measured and peak inhibition, which is at 3 hrs is noted down. In this model efficacy as well as dosage of drug is arrived by considering peak % inhibition. […] This is also not statistically significant.

[2] = system: Cotton pellet Granuloma; assay: Sub acute study: cotton pellet granuloma; type: in vivo, Swiss Wistar rats; conditions: Dose 10 mg/kg; dried pellet weight after 7 days
Experimental: This evaluates inflammation over a period of 7 days. This is done by classical animal model (in Swiss Wistar tats) of cotton pallet granuloma. Celecoxib is a positive control for comparison of the efficacy of Test Compound.
100 mg per kg is the optimal dose. A comparison is made with Celecoxib.

[3] = system: TNF-α; assay: TNF-α level in serum of FCA induced arthritic rat; type: in vivo
Experimental: (§1) This activity mimics the onset of autoimmune damage to joints and tests the efficiency of drug against this damage. Leflunamide is taken as positive control. Here Swiss Wistar rats are treated with Freunds Complete Adjuvant (CFA) to induce chronic inflammation symptoms similar to rheumatis diseases. The symptoms appear by 13th day. The drug treatment is started from 13th day to 23rd day for 10 days.
Effect of Test compound and standard drug Celecoxib on TNF-α level in FCA induced arthritis rat. The serum from the FCA induced arthritic rat was examined for Tumor necrosis factor alpha. The experimental protocol was same as example no.

[4] = system: gastric mucosa; assay: Gastric ulcerogenic effects after repeated oral administration; type: in vivo, male Swiss Wistar rats
Source text: Gastric ulcerogenic effects of Test compound and celecoxib after repeated oral administration for 7 consecutive days to the male Swiss Wistar rats.
In the control group, structure of the gastric mucosa appears normal.

[5] = system: FCA induced arthritis; assay: Chronic study: FCA (Freunds Complete Adjuvant) induced arthritis; type: in vivo, Swiss Wistar rats; conditions: Dose 10 mg/kg
Experimental: as §1
In addition, a disseminated arthritic reaction (secondary response) developed from […] alter FCA injection. The swelling was observed both in the injected paw and in the non-injected contra lateral paw. The reduction of the planter volume was statistically significant for both hind legs. The test compound gave a very impressive reduction of 52% at 100 mg per kg dose which is statistically significant. This compared very well with DMARD drug Leflunomide. However, Leflunomide is highly nephrotoxic and cannot be administered for a long time.

[6] = system: C-reactive protein; assay: C-reactive protein test (CRP test kit) in FCA arthritis model; type: in vivo, Swiss Wistar rats; conditions: CRP test kit, precipitate
Experimental: This activity mimics the onset of autoimmune damage to joints and tests the efficiency of drug against this damage. Leflunamide is taken as positive control. Here Swiss Wistar rats are treated with Freunds Complete Adjuvant (CFA) to induce chronic inflammation symptoms similar to rheumatis diseases. The symptoms appear by 13th day. The drug treatment is started from 13th day to 23rd day for 10 days. […] In this method the CRP test kit ([…], Dreadnought Trading Estate Bridgeport Dorset DT6 5BU UK) was used for the measurement of CRP. The results are expressed either […] or -ve depending on the formation of precipitate Normal range of CRP: up to 6 mg/L. Below this level is considered to be negative.

[7] = male, Swiss Wistar, rat, in vivo, po, 5 mg/kg, 7 days

Structure (SMILES) | Anti-inflammatory activity (% Inhibition) in Carrageenan model In 3 Hrs. [1] | Anti-inflammatory activity (% Inhibition) in Cotton pellet Granuloma [2] | Concentration of TNF-α in pg/mL Day 0 ([3]; Day 0) | Concentration of TNF-α in pg/mL Day 13 ([3]; Day 13) | Concentration of TNF-α in pg/mL Day 21 ([3]; Day 21) | Mean score of Lesion intensity ([4]; Dose 5 mg/kg p.o., 7 consecutive days) | Average of no. of ulcer per animal [4, 7] | No. of animals with ulcer [4, 7] | No. of animals with ulcer (%) [4, 7] | Ulcer Index (UI) [4, 7] | Anti-inflammatory activity (% Inhibition) in FCA induced arthritis Day 18 ([5]; Day 18, treatment from 13th day) | Anti-inflammatory activity (% Inhibition) in FCA induced arthritis Day 23 ([5]; Day 23, treatment 13th to 23rd day) | C-reactive protein After 10 Day Treatment ([6]; After 10 Day Treatment) | C-reactive protein Before Treatment ([6]; Before Treatment)
Cc1ccc(-c2cc(C(F)(F)F)nn2-c2ccc(S(N)(=O)=O)cc2)cc1 [Celecoxib, reference compound] | 45.2** % | 43.2** % | 28.9 pg/mL | 47.9 pg/mL | 33.6 pg/mL | 1.6 | 2 | 2 | 33.3% | 3.7 | – | – | – | –
Cc1oncc1C(=O)Nc1ccc(C(F)(F)F)cc1 [Leflunamide, reference compound] | – | – | – | – | – | – | – | – | – | – | 35.22* % | 76.55** % | Negative (Normal range of CRP: up to 6 mg/L. Below this level is considered to be negative) | Negative (Normal range of CRP: up to 6 mg/L. Below this level is considered to be negative)
